Assay results published in PubChem BioAssay AID212 (DTP/NCI, 2004).
“And” between values parts separate entries of the source, which are not always exact repeats. Equal entries are not always repeated. Inconclusive results are not listed.

Test system: BDF1 mice, colon carcinoma 38 sc, T/C %
Assay: NCI In Vivo Anticancer Drug Screen. Data for tumor model Colon Carcinoma 38 (subcutaneous) in B6D2F1 (BDF1) mice
Method in brief: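 Transplantable tumor in mice; compound-treated vs vehicle-dosed controls. Measured survival or tumor size; value = T ÷ C.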

[1] = endpoint: median tumor weight (est.), dose: 25.0 mg/kg/injection, schedule: Q07DX002 (ip), vehicle: saline with Tween-80, higher = larger tumour
[2] = endpoint: median tumor weight (est.), dose: 50.0 mg/kg/injection, schedule: Q07DX002 (ip), vehicle: saline with Tween-80, higher = larger tumour
[3] = endpoint: median tumor weight (est.), dose: 100.0 mg/kg/injection, schedule: Q07DX002 (ip), vehicle: saline with Tween-80, higher = larger tumour

Cc1c(-c2ccc(C3CCCCC3)cc2)nc2ccc(F)cc2c1C(=O)O
T/C (endpoint: median tumor weight (est.), dose: 50.0 mg/kg/injection, schedule: Q07DX002 (ip), vehicle: Klucel (hydroxypropylcellulose) (HPC), higher = larger tumour): 89 % of control
T/C (endpoint: median tumor weight (est.), dose: 100.0 mg/kg/injection, schedule: Q07DX002 (ip), vehicle: Klucel (hydroxypropylcellulose) (HPC), higher = larger tumour): 80 % of control
T/C (endpoint: median tumor weight (est.), dose: 200.0 mg/kg/injection, schedule: Q07DX002 (ip), vehicle: Klucel (hydroxypropylcellulose) (HPC), higher = larger tumour): 116 % of control
T/C (endpoint: median tumor weight (est.), dose: 400.0 mg/kg/injection, schedule: Q07DX002 (ip), vehicle: Klucel (hydroxypropylcellulose) (HPC), higher = larger tumour): 86 % of control
T/C (endpoint: median tumor weight (est.), dose: 400.0 mg/kg/injection, schedule: Q07DX002 (ip), vehicle: Klucel + Tween-80, higher = larger tumour): 120 % of control
T/C (endpoint: median tumor weight (est.), dose: 800.0 mg/kg/injection, schedule: Q07DX002 (ip), vehicle: Klucel (hydroxypropylcellulose) (HPC), higher = larger tumour): 107 % of control
T/C (endpoint: median tumor weight (est.), dose: 800.0 mg/kg/injection, schedule: Q07DX002 (ip), vehicle: Klucel + Tween-80, higher = larger tumour): 80 % of control

NNC(=S)N/N=C/c1ccccn1
T/C (endpoint: median tumor weight (est.), dose: 3.12 mg/kg/injection, schedule: Q07DX002 (ip), vehicle: suspension in saline, higher = larger tumour): 84 % of control
T/C (endpoint: median tumor weight (est.), dose: 6.25 mg/kg/injection, schedule: Q07DX002 (ip), vehicle: suspension in saline, higher = larger tumour): 49 % of control
T/C (endpoint: median tumor weight (est.), dose: 12.5 mg/kg/injection, schedule: Q07DX002 (ip), vehicle: suspension in saline, higher = larger tumour): 77 % of control
T/C (endpoint: median tumor weight (est.), dose: 25.0 mg/kg/injection, schedule: Q07DX002 (ip), vehicle: suspension in saline, higher = larger tumour): 75 % of control
T/C (endpoint: median tumor weight (est.), dose: 50.0 mg/kg/injection, schedule: Q07DX002 (ip), vehicle: suspension in saline, higher = larger tumour): 64 % of control

CO[C@@]12[C@@H]3N[C@@H]3CN1C1=C(C(=O)C(NCC3CCCO3)=C(C)C1=O)[C@@H]2COC(N)=O (some centres not stated)
T/C (endpoint: median tumor weight (est.), dose: 3.0 mg/kg/injection, schedule: Q07DX002 (ip), vehicle: distilled water + Tween-80, higher = larger tumour): 93 % of control
T/C (endpoint: median tumor weight (est.), dose: 6.0 mg/kg/injection, schedule: Q07DX002 (ip), vehicle: distilled water + Tween-80, higher = larger tumour): 69 % of control
T/C (endpoint: median tumor weight (est.), dose: 12.0 mg/kg/injection, schedule: Q07DX002 (ip), vehicle: distilled water + Tween-80, higher = larger tumour): 34 % of control
T/C (endpoint: median tumor weight (est.), dose: 24.0 mg/kg/injection, schedule: Q07DX002 (ip), vehicle: distilled water + Tween-80, higher = larger tumour): 28 % of control

CCCCNC(C)[C@]1(O)Cc2c(O)c3c(c(O)c2[C@@H](OC2CC(N)C(O)C(C)O2)C1)C(=O)c1c(OC)cccc1C3=O (some centres not stated)
T/C (endpoint: median survival time, dose: 16.0 mg/kg/injection, schedule: Q07DX002 (sc), vehicle: saline, higher = longer survival): 113 % of control
T/C (endpoint: median survival time, dose: 26.0 mg/kg/injection, schedule: Q07DX002 (sc), vehicle: saline, higher = longer survival): 151 % of control
T/C (endpoint: median tumor weight (est.), dose: 3.38 mg/kg/injection, schedule: Q07DX002 (ip), vehicle: saline, higher = larger tumour): 89 % of control
T/C (endpoint: median tumor weight (est.), dose: 6.75 mg/kg/injection, schedule: Q07DX002 (ip), vehicle: saline, higher = larger tumour): 88 % of control
T/C (endpoint: median tumor weight (est.), dose: 13.5 mg/kg/injection, schedule: Q07DX002 (ip), vehicle: saline, higher = larger tumour): 81 % of control

CCCCOCN(COCCCC)C(C)Cc1ccccc1 (configuration not stated)
T/C [1]: 85 % of control and 106 % of control
T/C [2]: 120 % of control and 99 % of control

C=C(C)[C@H]1CN[C@H](C(=O)O)[C@H]1CC(=O)O
T/C (endpoint: median tumor weight (est.), dose: 0.62 mg/kg/injection, schedule: Q07DX002 (ip), vehicle: saline, higher = larger tumour): 58 % of control
T/C (endpoint: median tumor weight (est.), dose: 1.25 mg/kg/injection, schedule: Q07DX002 (ip), vehicle: saline, higher = larger tumour): 80 % of control
T/C (endpoint: median tumor weight (est.), dose: 2.5 mg/kg/injection, schedule: Q07DX002 (ip), vehicle: saline, higher = larger tumour): 92 % of control
T/C (endpoint: median tumor weight (est.), dose: 5.0 mg/kg/injection, schedule: Q07DX002 (ip), vehicle: saline, higher = larger tumour): 95 % of control
T/C (endpoint: median tumor weight (est.), dose: 6.25 mg/kg/injection, schedule: Q07DX002 (ip), vehicle: saline, higher = larger tumour): 90 % of control
T/C (endpoint: median tumor weight (est.), dose: 10.0 mg/kg/injection, schedule: Q07DX002 (ip), vehicle: saline, higher = larger tumour): 79 % of control
T/C (endpoint: median tumor weight (est.), dose: 12.5 mg/kg/injection, schedule: Q07DX002 (ip), vehicle: saline, higher = larger tumour): 73 % of control
T/C (endpoint: median tumor weight (est.), dose: 20.0 mg/kg/injection, schedule: Q07DX002 (ip), vehicle: saline, higher = larger tumour): 90 % of control
T/C (endpoint: median tumor weight (est.), dose: 25.0 mg/kg/injection, schedule: Q07DX002 (ip), vehicle: saline, higher = larger tumour): 90 % of control

O.O.[NH-]C1CCCCC1[NH-].[Pt+2] (configuration not stated)
T/C (endpoint: median tumor weight (est.), dose: 1.25 mg/kg/injection, schedule: Q07DX002 (ip), vehicle: dextrose, higher = larger tumour): 98 % of control
T/C (endpoint: median tumor weight (est.), dose: 10.0 mg/kg/injection, schedule: Q07DX002 (ip), vehicle: dextrose, higher = larger tumour): 61 % of control and 62 % of control
T/C (endpoint: median tumor weight (est.), dose: 20.0 mg/kg/injection, schedule: Q07DX002 (ip), vehicle: dextrose, higher = larger tumour): 37 % of control and 43 % of control
T/C (endpoint: median tumor weight (est.), dose: 40.0 mg/kg/injection, schedule: Q07DX002 (ip), vehicle: dextrose, higher = larger tumour): 20 % of control

N#CC(=C1C=CC(=NO)C=C1)c1ccc(Cl)cc1
T/C (endpoint: median tumor weight (est.), dose: 12.5 mg/kg/injection, schedule: Q07DX002 (ip), vehicle: saline with Tween-80, higher = larger tumour): 72 % of control
T/C [1]: 100 % of control
T/C [3]: 103 % of control
T/C (endpoint: median tumor weight (est.), dose: 400.0 mg/kg/injection, schedule: Q07DX002 (ip), vehicle: saline with Tween-80, higher = larger tumour): 46 % of control

C[Si](C)(C)O/C=C1\CCCCC1=O
T/C [2]: 73 % of control and 91 % of control
T/C [3]: 79 % of control and 100 % of control
